According to US8541167B2 (priority 2004, dated 2013):

Legend:
[1] = system: ectromelia virus; design: species or system Mice; details: mouse, in vivo, ip, 12.5 mg/kg/day
[2] = system: ECTV; design: species or system A/NCr mice; details: mouse, in vivo
[3] = system: vaccinia, ectromelia or cowpox; details: mouse, in vivo; cited from earlier work

Nc1ccn(C[C@@H](CO)OCP(=O)(O)O)c(=O)n1 [Cidofovir]
effect of cidofovir during vaccination on level of protection from lethal disease [1]: did not affect the level of protection | protection from death afforded by vaccination in presence vs absence of CDV [2]: no difference observed | efficacy in protecting mice from a lethal dose [3]: high efficacy
